The text below walks through data of US20090093633A1, “Organic Compounds” (Novartis AG, priority 2006, published 2009).

Counter-ions that a name gives are not always drawn.

Chain of adenosine A2A receptor (P29274 whole entry): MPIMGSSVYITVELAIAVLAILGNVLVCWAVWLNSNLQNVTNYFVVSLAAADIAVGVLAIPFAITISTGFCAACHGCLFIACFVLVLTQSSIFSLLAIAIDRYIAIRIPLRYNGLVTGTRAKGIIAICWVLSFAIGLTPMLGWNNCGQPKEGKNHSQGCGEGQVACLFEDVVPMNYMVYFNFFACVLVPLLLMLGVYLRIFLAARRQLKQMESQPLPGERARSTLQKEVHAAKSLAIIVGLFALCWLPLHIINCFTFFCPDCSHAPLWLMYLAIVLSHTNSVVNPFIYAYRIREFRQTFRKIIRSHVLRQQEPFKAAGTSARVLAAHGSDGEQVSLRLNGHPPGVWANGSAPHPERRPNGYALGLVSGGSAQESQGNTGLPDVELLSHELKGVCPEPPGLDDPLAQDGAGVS

The assay concerns the target adenosine A2A receptor (Homo sapiens, UniProt P29274). The assay is described as follows: adenosine A2A receptor agonist assay (method of Murphree et al, Molecular Pharmacology 61, 455-462 (2002)). Type of assay: binding. Conditions: method of L. J. Murphree et al, Mol. Pharmacol. 61, 455-462 (2002). The source says:
Compounds of formula I and their pharmaceutically acceptable salts are useful as pharmaceuticals. In particular, they activate the adenosine A2A receptor, i.e. they act as A2A receptor agonists.
In general, Ki refers to the dissociation constant of the complex between target and ligand, obtained from inhibition or displacement. Compound `CCc1nnn([C@H]2C[C@@H](n3cnc4c(NCC(c5ccccc5)c5ccccc5)nc(N5CC[C@@H](NC(=O)Nc6cccc(-c7nnn[nH]7)c6)C5)nc43)[C@H](O)[C@@H]2O)n1` [Example 157, 1-((R)-1-{6-(2,2-Diphenyl-ethylamino)-9-[(1R,2S,3R,4S)-4-(5-ethyl-tetrazol-2-yl)-2,3-dihydroxy-cyclopentyl]-9H-purin-2-yl}-pyrrolidin-3-yl)-3-[3-(1H-tetrazol-5-yl)-phenyl]-urea hydrochloride] had a Ki of 3 nM. `O=C(NC1CCN(c2ccc(C(=O)O)cn2)CC1)N[C@@H]1CCN(c2nc(NCC(c3ccccc3)c3ccccc3)c3ncn([C@@H]4C[C@H](n5cc(CO)cn5)[C@@H](O)[C@H]4O)c3n2)C1` [Example 86, 4-(3-{(R)-1-[9-[(1R,2S,3R,4S)-2,3-Dihydroxy-4-(4-hydroxymethyl-pyrazol-1-yl)-cyclopentyl]-6-(2,2-diphenyl-ethylamino)-9H-purin-2-yl]-pyrrolidin-3-yl}-ureido)-3,4,5,6-tetrahydro-2H-[1,2′]bipyridinyl-5′-carboxylic acid trifluoroacetate] came in with a Ki of 40 nM.

`CCc1nnn([C@H]2C[C@@H](n3cnc4c(NCC(c5ccccc5)c5ccccc5)nc(N5CC[C@@H](NC(=O)NCc6ccnc7ccccc67)C5)nc43)[C@H](O)[C@@H]2O)n1` [Example 150, 1-((R)-1-{6-(2,2-Diphenyl-ethylamino)-9-[(1R,2S,3R,4S)-4-(5-ethyl-tetrazol-2-yl)-2,3-dihydroxy-cyclopentyl]-9H-purin-2-yl}-pyrrolidin-3-yl)-3 quinolin-4-ylmethyl-urea hydrochloride] yielded a Ki of 6 nM. `CCc1nnn([C@H]2C[C@@H](n3cnc4c(NCC(c5ccc(O)cc5)c5ccc(O)cc5)nc(N5CC[C@@H](NC(=O)Nc6ccncc6)C5)nc43)[C@H](O)[C@@H]2O)n1` [Example 109, 1-((R)-1-{6-[2,2-Bis-(4-hydroxy-phenyl)-ethylamino]-9-[(1R,2S,3R,4S)-4-(5-ethyl-tetrazol-2-yl)-2,3-dihydroxy-cyclopentyl]-9H-purin-2-yl}-pyrrolidin-3-yl)-3-pyridin-4-yl-urea hydrochloride] returned a Ki of 5 nM.

`CCc1cnn([C@H]2C[C@@H](n3cnc4c(NCC(c5ccccc5)c5ccccc5)nc(N5CC[C@@H](NC(=O)Nc6ccncc6)C5)nc43)[C@H](O)[C@@H]2O)n1` [Example 127, 1-((R)-1-{6-(2,2-Diphenyl-ethylamino)-9-[(1R,2S,3R,4S)-4-(4-ethyl-[1,2,3]triazol-2-yl)-2,3-dihydroxy-cyclopentyl]9H-purin-2-yl}-pyrrolidin-3-yl)-3-pyridin-4-yl-urea hydrochloride] displayed a Ki of 3 nM. As to `O=C(NC1CCN(c2ccccn2)CC1)N[C@@H]1CCN(c2nc(NCC(c3ccccc3)c3ccccc3)c3ncn([C@@H]4C[C@H](n5cc(CO)cn5)[C@@H](O)[C@H]4O)c3n2)C1` [Example 77, 1-{(R)-1-[9-[(1R,2S,3R,4S)-2,3-Dihydroxy-4-(4-hydroxymethyl-pyrazol-1-yl)-cyclopentyl]-6-(2,2-diphenyl-ethylamino)-9H-purin-2-yl]-pyrrolidin-3-yl}-3-(3,4,5,6-tetrahydro-2H-[1,2′]bipyridinyl-4-yl)-urea trifluoroacetate], the Ki is 20 nM. For `CCc1nnn([C@H]2C[C@@H](n3cnc4c(NCC(c5ccccc5)c5ccccc5)nc(N5CC[C@@H](NC(=O)NC6CCN(c7ccccn7)CC6)C5)nc43)[C@H](O)[C@@H]2O)n1` [Example 45, 1-((R)-1-{6-(2,2-Diphenyl-ethylamino)-9-[(1R,2S,3R,4S)-4-(5-ethyl-tetrazol-2-yl)-2,3-dihydroxy-cyclopentyl]-9H-purin-2-yl}-pyrrolidin-3-yl)-3-(3,4,5,6-tetrahydro-2H-[1,2′]bipyridinyl-4-yl)-urea], the affinity corresponds to a Ki of 17 nM. Consider `O=C(N[C@@H]1CCNC1)c1nc(NCC(c2ccccc2)c2ccccc2)c2ncn([C@@H]3C[C@H](n4cc(CO)cn4)C(O)C3O)c2n1` (stereo partly drawn) [Example 64, 9-[(1R,4S)-2,3-Dihydroxy-4-(4-hydroxymethyl-pyrazol-1-yl)-cyclopentyl]-6-(2,2-diphenyl-ethylamino)-9H-purine-2-carboxylic acid (R)pyrrolidin-3-yl amide], for which affinity was put at a Ki of 49 nM. As for `Cc1cnn([C@H]2C[C@@H](n3cnc4c(NCC(c5ccccc5)c5ccccc5)nc(NC5CCC(N)CC5)nc43)[C@H](O)[C@@H]2O)c1` (stereo partly drawn) [Example 1, (1R,2S,3R,5S)-3-[2-(4-Amino-cyclohexylamino)-6-(2,2-diphenyl-ethylamino)-purin-9-yl]-5-(4-methyl-pyrazol-1-yl)-cyclopentane-1,2-diol trifluoroacetate], the figure is 197 nM; as for `CCCCC#Cc1nc(N)c2ncn([C@@H]3C[C@H](n4cc(CC)cn4)[C@@H](O)[C@H]3O)c2n1` [Example 37, (1R,2S,3R,5S)-3-(6-Amino-2-hex-1-ynyl-purin-9-yl)-5-(4-ethyl-pyrazol-1-yl)-cyclopentane-1,2-diol], 121 nM.

With `NC1CCC(Nc2nc(NCC(c3ccccc3)c3ccccc3)c3ncn([C@@H]4C[C@H](n5cccn5)[C@@H](O)[C@H]4O)c3n2)CC1` (stereo partly drawn) [Example 12, (1R,2S,3R,5S)-3-[2-(4-Amino-cyclohexylamino)-6-(2,2-diphenyl-ethylamino)-purin-9-yl]-5-pyrazol-1-yl-cyclopentane-1,2-diol], the Ki was found to be 272 nM. For the compound `Cc1cnn([C@H]2C[C@@H](n3cnc4c(N)nc(N[C@@H]5CCC[C@H]5OCc5ccccc5)nc43)[C@H](O)[C@@H]2O)c1` [Example 22, (1R,2S,3R,5S)-3-[6-Amino-2-((1R,2R)-2-benzyloxy-cyclopentylamino)-purin-9-yl]-5-(4-methyl-pyrazol-1-yl)-cyclopentane-1,2-diol], the Ki was 138 nM. On to `CCn1cnc(CCNc2nc(NCC(c3ccccc3)c3ccccc3)c3ncn([C@@H]4C[C@H](n5cc(CO)cn5)[C@@H](O)[C@H]4O)c3n2)c1` [Example 47, (1R,2S,3R,5S)-3-{6-(2,2-Diphenyl-ethylamino)-2-[2-(1-ethyl-1H-imidazol-4-yl)-ethylamino]-purin-9-yl}-5-(4-hydroxymethyl-pyrazol-1-yl)-cyclopentane-1,2-diol], for which affinity was put at a Ki of 10 nM. As to `Cc1cnn([C@H]2C[C@@H](n3cnc4c(NCC(c5ccccc5)c5ccccc5)nc(NCCc5cnc[nH]5)nc43)[C@H](O)[C@@H]2O)c1` [Example 4, (1R,2S,3R,5S)-3-{6-(2,2-Diphenyl-ethylamino)-2-[2-(3H-imidazol-4-yl)-ethylamino]-purin-9-yl}-5-(4-methyl-pyrazol-1-yl)-cyclopentane-1,2-diol], the Ki was 172 nM. On to `CN(C)[C@@H]1CCN(c2nc(NCC(c3ccccc3)c3ccccc3)c3ncn([C@@H]4C[C@H](n5cc(CO)cn5)[C@@H](O)[C@H]4O)c3n2)C1` [Example 96, (1R,2S,3R,5S)-3-[2-((R)-3-Dimethylamino-pyrrolidin-1-yl)-6-(2,2-diphenyl-ethylamino)-purin-9-yl]-5-(4-hydroxymethyl-pyrazol-1-yl)-cyclopentane-1,2-diol], for which the affinity corresponds to a Ki of 2 nM. In turn, `CCc1cnn([C@H]2C[C@@H](n3cnc4c(NCCc5ccccc5)nc(NCCc5cn(CC)cn5)nc43)[C@H](O)[C@@H]2O)c1` [Example 54, (1R,2S,3R,5S)-3-{2-[2-(1-Ethyl-1H-imidazol-4-yl)-ethylamino]-6-phenethylamino-purin-9-yl}-5-(4-ethyl-pyrazol-1-yl)-cyclopentane-1,2-diol] returned a Ki of 72 nM. The compound `CCCCC#Cc1nc(N)c2ncn([C@@H]3C[C@H](n4cc(CO)cn4)[C@@H](O)[C@H]3O)c2n1` [Example 40, (1R,2S,3R,5S)-3-(6-Amino-2-hex-1-ynyl-purin-9-yl)-5-(4-hydroxymethyl-pyrazol-1-yl)-cyclopentane-1,2-diol] returned a Ki of 67 nM. On to `Cc1nnn([C@H]2C[C@@H](n3cnc4c(NCC(c5ccccc5)c5ccccc5)nc(N5CC[C@@H](NS(C)(=O)=O)C5)nc43)[C@H](O)[C@@H]2O)n1` [Example 67, N-{(R)-1-[9-[(1R,2S,3R,4S)-2,3-Dihydroxy-4-(5-methyl-tetrazol-2-yl)-cyclopentyl]-6-(2,2-diphenyl-ethylamino)-9H-purin-2-yl]pyrrolidin-3-yl}-methanesulfonamide], for which the Ki turned out to be 71 nM.
